In publication PMC4214760, “Host Cofactors and Pharmacologic Ligands Share an Essential Interface in HIV-1 Capsid That Is Lost upon Disassembly” (PLoS Pathogens, 2014):
“Also recorded” adds a separate entry of the source. Read-outs that look alike come from different tables or passages of the source. Ends that are not written are not given here.

Columns and labels:
[1] = biological target: T1, HIV-1 CA hexamer (Human immunodeficiency virus type 1 group M subtype B, UniProt P12493, A146C/E177C/M317A/W316A); test: biochemical; type: binding
T1 construct: produced by assembly of recombinant CA containing four amino acid substitutions; made in house
Experimental: (§1) Hexamer protein was dialysed against ITC buffer (50 mM TRIS pH 7.4, 150 mM NaCl) for experiments using intact hexamer, or ITC buffer containing 1 mM DTT for experiments with monomerized hexamer. The monomeric status of hexamer dialysed against buffer containing DTT was confirmed by size exclusion chromatography. Peptides were dissolved in the same buffer as hexamer; NUP153 peptides were first dissolved in DMSO to a concentration of 8 mM before diluting in buffer. Drugs were dissolved in DMSO to a concentration of 5 mM, before diluting in buffer. In all cases, hexamer (in the syringe) was titrated into the peptide or drug ligand (in the cell), with the exception of the competition experiments, whereby peptide (400 µM) was titrated into hexamer (30 µM) in the presence of drug (100 µM). Typical concentrations used were 600–800 µM hexamer titrated against 60–80 µM peptide unless indicated otherwise, and 200 µM hexamer titrated against 30 µM drug. ITC experiments were conducted on a MicroCal ITC-200, and data analyzed using Origin data analysis software (MicroCal).

[2] = biological target: T2, monomeric HIV-1 CA (Human immunodeficiency virus type 1 group M subtype B, UniProt P12493, A146C/E177C/M317A/W316A); test: ITC binding to monomeric CA (hexamer monomerized with 1 mM DTT)
T2 construct: produced by assembly of recombinant CA containing four amino acid substitutions; made in house
Experimental: as §1

[3] = biological target: T1, HIV-1 CA hexamer; test: ITC competition: cofactor peptide titrated into hexamer in the presence of drug; type: binding
Experimental: as §1

[4] = test system: VSV-G pseudotyped GFP-encoding HIV-1 vector; type: cell-based
[5] = test system: HIV-1 reverse transcription; type: cell-based
[6] = read-out: Kd (approximate), hexamer binding of CPSF6 and NUP153 mutant peptides, ITC, Hex 0.76-1.122 mM into peptide 0.076-0.112 mM, NB = no binding detectable

Molecule: CN(C(=O)[C@H](Cc1ccccc1)NC(=O)CC1CCOC1)c1ccccc1 (stereo partly shown) [PF74_6]
- Fold reduction in affinity to hexamer relative to PF74 ([1]; ITC): > 1000 fold

Molecule: PVLFPGQPAGQPPLG [CPSF6pep F321A]
- Kd [1, 6]: > 700 µM

Molecule: TNNSPSGVFTAGANSST [Nup153pep F1417A]
- Kd [1, 6]: > 700 µM

Molecule: TNNSPAGVFTFGANSST [Nup153pep S1412A]
- Kd [1]: ~130 µM

Molecule: PVLFPRQPFGQPPLG [CPSF6pep G318R]
- Kd [1, 6]: > 700 µM

Molecule: TNNSPSGVATFGANSST [Nup153pep F1415A]
- Kd [1, 6]: > 700 µM

Molecule: PF74
- Fold higher affinity to hexamer than BI-2 [1]: 10 fold
- Fold increase in affinity to hexamer compared with monomeric CA [1]: 22 fold
- N (stoichiometry), binding to HIV-1 hexamer [1]: 0.7
- ΔH, binding to HIV-1 hexamer [1]: -37.7 kJ/mol
- ΔS, binding to HIV-1 hexamer [1]: 1.20 (cal/mol)/deg
- N (stoichiometry), binding to monomeric CA [2]: 0.7
- ΔH, binding to monomeric CA [2]: -67.4 kJ/mol
- ΔS, binding to monomeric CA [2]: -29.0 (cal/mol)/deg
- Competition with CPSF6 peptide for binding to hexamer [3]: inhibit CPSF6 binding to hexamer
- Competition with NUP153 peptide for binding to hexamer [3]: prevent NUP153 binding to hexamer
- Reversal of inhibition of infection on wash out [4]: completely; also recorded: partially
- Time post-infection by which almost all efficacy was lost when addition was delayed [4]: ≤ 10 h
- Reversibility of block to reverse transcription on wash out [5]: largely irreversible

Molecule: TNNSPSGVFAFGANSST [Nup153pep T1416A]
- Kd [1, 6]: > 700 µM

Molecule: CN(C(=O)[C@H](Cc1ccccc1)NC(=O)Cc1cc[nH]c1)c1ccccc1 [PF74_3]
- Kd [1]: 5.5 µM
- Fold reduction in affinity to hexamer relative to PF74 ([1]; ITC): 46 fold

Molecule: CN(C(=O)[C@H](Cc1ccccc1)NC(=O)Cc1ccoc1)c1ccccc1 [PF74_4]
- Fold reduction in affinity to hexamer relative to PF74 ([1]; ITC): 94 fold

Molecule: CN(C(=O)[C@H](Cc1ccccc1)NC(=O)Cc1ccsc1)c1ccccc1 [PF74_5]
- Fold reduction in affinity to hexamer relative to PF74 ([1]; ITC): 54 fold

Molecule: PVLFDGQPFGQPPLG [CPSF6pep P317D]
- Kd [1, 6]: > 700 µM
